Results as given in patent US20150031740A1, “COSMETIC COMPOSITION FOR STIMULATING THE CELLULAR ANTI-AGING FUNCTIONS OF THE SKIN” (SYNTIVIA, priority 2011, published 2015).

Tests used:
[1] = tested on: SPARC (Osteonectin); experiment: Expression of extracellular matrix gene SPARC, RT-PCR in NHDF; assay type: cell-based, human; conditions: 10^−5 M, 24 hours, quantitative RT-PCR
Procedure: (§1) In these examples, the expression of messenger RNAs was measured via the technique of quantitative RT-PCR (reverse transcription followed by polymerase chain reaction), after in vitro incubation of the various cell types in the absence or presence of the test compounds.
(§2) This study was performed on normal human dermal fibroblasts (NHDF) or on normal human epidermal keratinocytes (NHEK), depending on the genes tested. The molecules were tested at 10^−5 M in aqueous 0.1% dimethyl sulfoxide (DMSO) solution.
(§3) The cells were cultured at a concentration of 10,000 cells per well of 96-well plates, in the presence of standard culture medium as a function of the cell type.
(§4) The compounds were then added at the test concentration, for 24 hours.
(§5) The supernatant was removed and the cells were taken up in a specific buffer for extraction of the messenger RNAs (mRNA). The mRNAs were purified and reverse-transcribed in the presence of a commercial reverse transcriptase.
(§6) The complementary DNAs (cDNA) obtained were used in a real-time quantitative PCR experiment, by means of suitable primers. The degree of expression of the mRNAs was normalized with five reference genes.
(§7) The cells used for this example are normal human fibroblasts (NHDF).
(§8) The contact with the test compounds was carried out for 24 hours. […]

[2] = tested on: ELN (Elastin); experiment: Expression of extracellular matrix gene Elastin, RT-PCR in NHDF; assay type: cell-based, human; conditions: 10^−5 M, 24 hours, quantitative RT-PCR
Procedure: as §1, §2, §3, §4, §5, §6, §7, §8

[3] = tested on: EPPK1 (Epiplakin 1); experiment: Expression of cell differentiation and adhesion gene EPPK1, RT-PCR in NHEK; assay type: cell-based, human; conditions: 10^−5 M, 24 hours, quantitative RT-PCR
Procedure: as §1, §2, §3, §4, §5, §6
(§9) The cells used for this example are normal human keratinocytes (NHEK).
as §8

[4] = tested on: LAMA5 (Laminin alpha 5); experiment: Expression of extracellular matrix gene Laminin alpha 5, RT-PCR in NHDF; assay type: cell-based, human; conditions: 10^−5 M, 24 hours, quantitative RT-PCR
Procedure: as §1, §2, §3, §4, §5, §6, §7, §8

[5] = tested on: sirtuin-5; experiment: Expression of the gene coding for sirtuin-5, quantitative RT-PCR in NHDF; assay type: cell-based; conditions: normal human fibroblasts (NHDF), 10^−5 M in 0.1% DMSO, 24 hours, mRNA by quantitative RT-PCR
Procedure: In these examples, the expression of messenger RNAs was measured via the technique of quantitative RT-PCR (reverse transcription followed by polymerase chain reaction), after in vitro incubation of the various cell types in the absence or presence of the test compounds. This study was performed on normal human dermal fibroblasts (NHDF) or on normal human epidermal keratinocytes (NHEK), depending on the genes tested. The molecules were tested at 10^−5 M in aqueous 0.1% dimethyl sulfoxide (DMSO) solution. The cells were cultured at a concentration of 10,000 cells per well of 96-well plates, in the presence of standard culture medium as a function of the cell type. The compounds were then added at the test concentration, for 24 hours. The supernatant was removed and the cells were taken up in a specific buffer for extraction of the messenger RNAs (mRNA). The mRNAs were purified and reverse-transcribed in the presence of a commercial reverse transcriptase. The complementary DNAs (cDNA) obtained were used in a real-time quantitative PCR experiment, by means of suitable primers. The degree of expression of the mRNAs was normalized with five reference genes. The cells used for this example are normal human fibroblasts (NHDF). The contact with the test compounds was carried out for 24 hours. The results obtained, in terms of expression of sirtuin-5 (coded for by the gene of Genbank accession number: NC—000006.11) relative to the basal level (absence of compound) taken to 100%, are shown in Table 5 below.

[6] = tested on: AQP3 (Aquaporin 3); experiment: Expression of cell differentiation and adhesion gene AQP3, RT-PCR in NHEK; assay type: cell-based, human; conditions: 10^−5 M, 24 hours, quantitative RT-PCR
Procedure: as §1, §2, §3, §4, §5, §6, §9, §8

[7] = tested on: COL1A11 (Collagen 1); experiment: Expression of extracellular matrix gene Collagen 1, RT-PCR in NHDF; assay type: cell-based, human; conditions: 10^−5 M, 24 hours, quantitative RT-PCR
Procedure: as §1, §2, §3, §4, §5, §6, §7, §8

[8] = tested on: EVPL (Envoplakin); experiment: Expression of cell differentiation and adhesion gene EVPL, RT-PCR in NHEK; assay type: cell-based, human; conditions: 10^−5 M, 24 hours, quantitative RT-PCR
Procedure: as §1, §2, §3, §4, §5, §6, §9, §8

[9] = tested on: KRT1 (Keratin 1); experiment: Expression of cell differentiation and adhesion gene KRT1, RT-PCR in NHEK; assay type: cell-based, human; conditions: 10^−5 M, 24 hours, quantitative RT-PCR
Procedure: as §1, §2, §3, §4, §5, §6, §9, §8

[10] = tested on: COL5A1 (Collagen 5); experiment: Expression of extracellular matrix gene Collagen 5, RT-PCR in NHDF; assay type: cell-based, human; conditions: 10^−5 M, 24 hours, quantitative RT-PCR
Procedure: as §1, §2, §3, §4, §5, §6, §7, §8

[11] = tested on: COL3A1 (Collagen 3); experiment: Expression of extracellular matrix gene Collagen 3, RT-PCR in NHDF; assay type: cell-based, human; conditions: 10^−5 M, 24 hours, quantitative RT-PCR
Procedure: as §1, §2, §3, §4, §5, §6, §7, §8

[12] = tested on: TGM1 (Transglutaminase 1); experiment: Expression of cell differentiation and adhesion gene TGM1, RT-PCR in NHEK; assay type: cell-based, human; conditions: 10^−5 M, 24 hours, quantitative RT-PCR
Procedure: as §1, §2, §3, §4, §5, §6, §9, §8

[13] = tested on: CRNN (Cornulin); experiment: Expression of cell differentiation and adhesion gene CRNN, RT-PCR in NHEK; assay type: cell-based, human; conditions: 10^−5 M, 24 hours, quantitative RT-PCR
Procedure: as §1, §2, §3, §4, §5, §6, §9, §8

[14] = tested on: Collagen 1; experiment: Expression of Collagen 1 at the protein level by immunofluorescence in NHDF; assay type: cell-based, human; conditions: 10 ppm in 0.1% DMSO, 24 hours, FIG. 1
Procedure: In this example, the expression of Collagen 1 was measured at the protein level via the immunofluorescence technique, after in vitro incubation of the cells in the absence or presence of the test compounds, at a concentration of 10 ppm in aqueous 0.1% DMSO solution.
The compound in accordance with the invention of formula (IIa) and the comparative compounds Comp.1 and Comp.2, of respective formula (IV) and (V), were tested.
TGFβ was used as positive control, at a concentration of 10 ng/ml in an aqueous solution. An untreated control was also realized.
This study was performed on normal human dermal fibroblasts (NHDF).
The cells were cultured at a concentration of 4000 cells per well in 96-well plates, in the presence of standard culture medium.
The compounds were then added at the test concentration, identical for all, for 24 hours.
The supernatant was removed and the cells were prepared for the fluorescent labeling. The cells were fixed in the presence of 3.7% formaldehyde, and then permeabilized in a buffer containing 1% Triton®, and finally the cells were rinsed and incubated in the presence of an anti-Collagen1 monoclonal antibody (Abcam) for one hour 30 minutes. After washing, the cells were incubated in the presence of the secondary antibody (Alexa GAM488, Invitrogen) for 1 hour. […]
The fluorescence was then quantified using an automated microscope (ArrayScan®, Cellomics®). […]

[15] = tested on: MMP-9 (matrix metalloprotease type 9); experiment: Gene expression of MMP-9, quantitative RT-PCR in NHEK; assay type: cell-based; conditions: normal human keratinocytes (NHEK), 10^−5 M in 0.1% DMSO, 24 hours, mRNA by quantitative RT-PCR
Procedure: as §1, §2, §3, §4, §5, §6
The cells used for this example were normal human keratinocytes (NHEK).
The contact with the test compounds was carried out for 24 hours.

[16] = tested on: HAS3 (Hyaluronan synthase 3); experiment: Expression of extracellular matrix gene Hyaluronan synthase 3, RT-PCR in NHDF; assay type: cell-based, human; conditions: 10^−5 M, 24 hours, quantitative RT-PCR
Procedure: as §1, §2, §3, §4, §5, §6, §7, §8

[17] = tested on: SPINK5 (Serine peptidase Kazal type 5); experiment: Expression of cell differentiation and adhesion gene SPINK5, RT-PCR in NHEK; assay type: cell-based, human; conditions: 10^−5 M, 24 hours, quantitative RT-PCR
Procedure: as §1, §2, §3, §4, §5, §6, §9, §8

[18] = tested on: protein Klotho (KL); experiment: Expression of the gene coding for the protein Klotho (KL), quantitative RT-PCR in NHDF; assay type: cell-based; conditions: normal human fibroblasts (NHDF), 10^−5 M in 0.1% DMSO, 24 hours, mRNA by quantitative RT-PCR
Procedure: as §1, §2, §3, §4, §5, §6, §7, §8

In the case of `COc1ccc2[nH]cc(CCNC(=O)/C=C/c3ccc(O)c(O)c3)c2c1` [(IIa), (2E)-3-(3,4-Dihydroxyphenyl)-N-[2-(5-methoxy-1H-indol-3-yl)ethyl]-2-propenamide], the “Gene expression relative to the basal level taken to 100%: SPARC (Osteonectin)” value [1] is reported as 118%, the “Gene expression relative to the basal level taken to 100%: ELN (Elastin)” value [2] is reported as 136% and the “Gene expression relative to the basal level taken to 100%: EPPK1 (Epiplakin 1)” value [3] is reported as 177%. For the same compound, the “Gene expression relative to the basal level taken to 100%: LAMA5 (Laminin alpha 5)” value [4] was 141%, the “Expression of sirtuin-5 relative to the basal level taken to 100%” value [5] was 153% and the “Gene expression relative to the basal level taken to 100%: AQP3 (Aquaporin 3)” value [6] was 228%. For the same compound, the “Gene expression relative to the basal level taken to 100%: COL1A11 (Collagen 1)” value [7] was 133%, the “Gene expression relative to the basal level taken to 100%: EVPL (Envoplakin)” value [8] was 166% and the “Gene expression relative to the basal level taken to 100%: KRT1 (Keratin 1)” value [9] was 142%. The “Gene expression relative to the basal level taken to 100%: COL5A1 (Collagen 5)” value [10] was 144%, the “Gene expression relative to the basal level taken to 100%: COL3A1 (Collagen 3)” value [11] was 125% and the “Gene expression relative to the basal level taken to 100%: TGM1 (Transglutaminase 1)” value [12] was 183%. The “Gene expression relative to the basal level taken to 100%: CRNN (Cornulin)” value [13] was 261%, the “Expression (production) of Collagen 1 relative to the basal level (control) taken to 100%” value [14] was “substantially stimulates the production of collagen 1 by the cells, as much as the positive control (TGFβ)” and the “Decrease of expression of MMP-9 relative to the basal level taken to 100%” value [15] was −67%. The “Gene expression relative to the basal level taken to 100%: HAS3 (Hyaluronan synthase 3)” value [16] was 144% and the “Gene expression relative to the basal level taken to 100%: SPINK5 (Serine peptidase Kazal type 5)” value [17] was 173%.

`COc1ccc2[nH]cc(CCNC(=O)/C=C/c3ccc(O)cc3)c2c1` [(IIb)] was tested, and the “Expression of sirtuin-5 relative to the basal level taken to 100%” value [5] was 125% and the “Expression of the protein Klotho relative to the basal level taken to 100%” value [18] was “+144%”.

With `COc1ccc2[nH]cc(CCNC(=O)c3ccc(O)cc3O)c2c1` [(IIc)] the “Decrease of expression of MMP-9 relative to the basal level taken to 100%” value [15] was −56%.

`COc1cc(/C=C/C(=O)NCCc2c[nH]c3ccc(O)cc23)ccc1O` [(IId)] was tested, and the “Decrease of expression of MMP-9 relative to the basal level taken to 100%” value [15] was −47%.

With `O=C(NCCc1c[nH]c2ccc(O)cc12)c1ccc(O)c(O)c1` [(IIe)] the “Expression of sirtuin-5 relative to the basal level taken to 100%” value [5] was 146% and the “Decrease of expression of MMP-9 relative to the basal level taken to 100%” value [15] was −81%.

With `O=C(/C=C/c1ccc(O)c(O)c1)NCCc1c[nH]c2ccc(O)cc12` [(IIf)] the “Expression of sirtuin-5 relative to the basal level taken to 100%” value [5] was 140% and the “Decrease of expression of MMP-9 relative to the basal level taken to 100%” value [15] was −63%.

With `O=C(NCCc1c[nH]c2ccccc12)c1ccc(O)cc1` [Comp.2, 4-hydroxy-N-[2-(1H-indol-3-yl)ethyl]benzamide, reference compound] the “Expression (production) of Collagen 1 relative to the basal level (control) taken to 100%” value [14] was “do not stimulate, or only very sparingly stimulate”.
